Measurements taken from patent publication US8975246B2, “Bile acid or bile salt fatty acid conjugates” (Galmed Research and Development Ltd., priority 2001, dated 2015).

Tests used:
Type in all cases: in vivo
human patients [1] = test: Human study: change in weight; design: Change in Weight, Mean / Change in Weight, Median / Change in Weight, Max: unit not given here; conditions: for Change in Weight, Max / Change in Weight, Mean / Change in Weight, Median / Change in Weight, Min: 3 months
Protocol: (§1) The effects of BAFACs on disorders associated with Fatty liver, insulin resistance and altered glucose metabolism were tested on 60 human patients. Experiments were subdivided to 2 dosage regimens: Aramchol 300 mg daily (high dose) and 100 mg daily (low dose) respectively for a total period time of 3 months. The Aramchol:placebo ratio is of 2:1 for the low dose arm, and 1:1 for the high dose arms.
(§2) The study period included a 3 month treatment period with Aramchol low dose, or Aramchol high dose, or placebo, and a one month follow-up period. Aramchol was given daily orally. During the treatment period, all patients attended periodic […] (at first month) and subsequently monthly study-center visits in order to assess safety and efficacy of the treatment.
(§3) The results are shown using two known in the art principle statistical evaluation on, Intention-To-Treat (ITT) and Per Protocol (PP) populations. The ITT principle asserts that the effect of a treatment policy can be best assessed by evaluation on the basis of the intention to treat a subject (i.e. the planned treatment regimen) rather than the actual treatment given. It has the consequence that subjects allocated to a treatment group should be followed up, assessed and analyzed as members of that group irrespective of their compliance to the planned course of treatment. […] Compliance covers such considerations as exposure to treatment, availability of measurements and absence of major protocol violations.

Inbred C57J/L mice = test: Liver lipid/protein ratio, mice on high fat lithogenic diet; conditions: BAFAC 150 mg/Kg daily by gavage, 5 weeks
Protocol: Inbred C57J/L mice, 4 weeks old and weighing approx. 20 gm (Jackson Lab. Maine, USA) were used. They were fed for 5 weeks a high fat lithogenic diet consisting of: Cholesterol 1%, Cholic Acid 0.5%, lard 10%, butter 6%, palmitic acid 1.2% and corn oil 2% added (w/w) to their regular diet. In addition to the diet the animals were given daily, by gavage, either a BAFAC (150 mg/Kg) suspended in saline or an equal volume of saline only. The BAFACs were conjugates of cholic acid (at position 3) with either Palmitic Acid (C-16) or Arachidic Acid (C-20) or Behenic Acid (C-22) using an amide bond. The controls (n=5) received saline, the test animals received either the C-16 conjugate (n=5), the C-20 conjugate (n=5) or the C-22 conjugate (n=3). After 5 weeks, following an overnight fast, the animals were anesthetized using ketamine, the liver was removed, and the animals were sacrificed by ketamine overdose. A 0.5 gm sample of liver was homogenized in 5 ml of buffered saline. Liver lipids were extracted from the homogenate by the Folch method using chloroform:methanol (2:1, vol/vol). Half a ml of the homogenate were extracted in 5 ml of the Folch solution. After evaporation of the solvent the lipids were weighed and reevaporated several times until constant weight was obtained. The proteins were quantified in another aliquot of the homogenate according to the method of Bradford. (Bradford M. M., Annal Biochem. 1976, 72:248).
The lipid protein ratio (mg/mg) was calculated. The results for each group are given as means (+St. Dev.) The group values were: […]

ICR male mice = test: Fasting blood glucose, streptozotocin treated mice (IDDM model); conditions: Streptozotocin 200 mg/kg i.p., regular diet, BAFAC 150 mg/kg/day by gavage, 16 days
Protocol: The effects of BAFACs on fasting blood glucose were tested in 3 animal species: Hamsters, Rats and Mice. The animals were kept on regular or high fat diets (as specified). In each group half of the animals received a daily BAFAC dose (150 mg/kg) dispersed in 0.5 ml of saline by gavage. The other half received similarly, by gavage, an equal volume of saline only. All animals were kept on a 12 hr day/night cycle at 22° C. throughout the experiment. They had access to water ad libidum.
ICR male mice, 4 weeks old (approx. 20 gm) were fed a regular diet. Streptozotocin 200 mg/kg was injected i.p. on the first day of the experiment. (This induced damage to the islet cells of the pancreas and simulated IDDM). Fasting blood glucose was obtained from sacrificed animals after 16 days of the trial. There were 3 groups of 7 animals each. Controls—regular diet only. Streptozotocin (Stz) treated animals receiving saline only by gavage and streptozocin treated animals receiving 150 mg/kg/day of BAFAC by gavage. The BAFAC used in all these hyperglycemia studies was a conjugate of arachidic and cholic acid (at position 3) using an amide bond (C-20 BAFAC, Aramchol).

Golden Syrian Hamsters = test: Serum cholesterol of hamsters on lithogenic diet; conditions: Lithogenic diet 1 + BAFAC II 150 mg/kg/day by gavage, 10 W
Protocol: Golden Syrian Hamsters-(Anilab, Rehovot, Israel) 4-6 weeks old weighing 90-110 gm were used. They were fed a lithogenic diet (No. 1) consisting of their regular diet supplemented with (w/w) cholesterol 1%, Palmitic Acid 1.2%, Corn Oil 2% (modified from Ayvad et al., Lipids, 1992; 27:993-998) for 10 weeks. Half of the animals were given in addition 3β-arachidylamido-7α,12α-dihydroxy-5β-cholan-24-oic acid at a dose of 150 mg/kg/day suspended in saline, by intragastric gavage. The control animals were similarly given an equal volume of saline. After ten weeks the animals were anesthetized, heart blood was drawn for analysis. The liver and other organs were removed. Serum cholesterol levels were determined by autoanalyzer.

human patients [2] = test: Human study: change in HOMA (insulin resistance); conditions: for Change in HOMA from Baseline, Max / Change in HOMA from Baseline, Mean / Change in HOMA from Baseline, Median / Change in HOMA from Baseline, Min: 3 months
Protocol: as §1, §2, §3
Homeostatic model assessment (HOMA) is a method used to quantify insulin resistance and beta-cell function. The Dunnett method is used for multiple comparisons with a control group, and adjusts the data by age, gender, diagnosis, baseline HbA1c and baseline weight.

CCCCCCCCCCCCCCCCCCCC(=O)N[C@H]1CC[C@@]2(C)[C@@H](C1)C[C@@H](O)[C@@H]1[C@@H]2C[C@H](O)[C@]2(C)[C@@H]([C@H](C)CCC(=O)O)CC[C@@H]12 [Aramchol, 3β-arachidylamido-7α,12α-dihydroxy-5β-cholan-24-oic acid]
Change in Weight, Max (human patients [1]; Aramchol 100 mg/d oral, ITT): 4.00
Change in Weight, Mean (human patients [1]; Aramchol 100 mg/d oral, ITT): 0.18
Change in Weight, Median (human patients [1]; Aramchol 100 mg/d oral, ITT): 0.00
Change in Weight, Min (human patients [1]; Aramchol 100 mg/d oral, ITT): −5.00
Change in Weight, Max (human patients [1]; Aramchol 100 mg/d oral, PP): 4.00
Change in Weight, Mean (human patients [1]; Aramchol 100 mg/d oral, PP): 0.08
Change in Weight, Median (human patients [1]; Aramchol 100 mg/d oral, PP): 0.00
Change in Weight, Min (human patients [1]; Aramchol 100 mg/d oral, PP): −5.00
Change in Weight, Max (human patients [1]; Aramchol 300 mg/d oral, ITT): 3.50
Change in Weight, Mean (human patients [1]; Aramchol 300 mg/d oral, ITT): −1.15
Change in Weight, Median (human patients [1]; Aramchol 300 mg/d oral, ITT): −1.25
Change in Weight, Min (human patients [1]; Aramchol 300 mg/d oral, ITT): −4.40
Change in Weight, Max (human patients [1]; Aramchol 300 mg/d oral, PP): 3.50
Change in Weight, Mean (human patients [1]; Aramchol 300 mg/d oral, PP): −1.15
Change in Weight, Median (human patients [1]; Aramchol 300 mg/d oral, PP): −1.25
Change in Weight, Min (human patients [1]; Aramchol 300 mg/d oral, PP): −4.40
body weight (in words) (human patients [1]; Aramchol 300 mg/d, tested subjects, Tables 9 and 10): reduces body weight
lipid protein ratio in liver, mean (+St. Dev.) (Inbred C57J/L mice): 1.44 ± 1.18 mg/mg
fasting blood glucose (ICR male mice): markedly reduced
Serum Cholesterol (mean + StD) (Golden Syrian Hamsters): 202 (59.6) mg %
Change in HOMA from Baseline, Max (human patients [2]; Aramchol 100 mg/d oral, ITT): 11.70
Change in HOMA from Baseline, Mean (human patients [2]; Aramchol 100 mg/d oral, ITT): 1.25
Change in HOMA from Baseline, Median (human patients [2]; Aramchol 100 mg/d oral, ITT): 0.20
Change in HOMA from Baseline, Min (human patients [2]; Aramchol 100 mg/d oral, ITT): −2.00
Change in HOMA from Baseline, Max (human patients [2]; Aramchol 100 mg/d oral, PP): 11.70
Change in HOMA from Baseline, Mean (human patients [2]; Aramchol 100 mg/d oral, PP): 1.13
Change in HOMA from Baseline, Median (human patients [2]; Aramchol 100 mg/d oral, PP): 0.20
Change in HOMA from Baseline, Min (human patients [2]; Aramchol 100 mg/d oral, PP): −2.00
Change in HOMA from Baseline, Max (human patients [2]; Aramchol 300 mg/d oral, ITT): 2.80
Change in HOMA from Baseline, Mean (human patients [2]; Aramchol 300 mg/d oral, ITT): −7.74
Change in HOMA from Baseline, Median (human patients [2]; Aramchol 300 mg/d oral, ITT): 0.20
Change in HOMA from Baseline, Min (human patients [2]; Aramchol 300 mg/d oral, ITT): −139.60
Change in HOMA from Baseline, Max (human patients [2]; Aramchol 300 mg/d oral, PP): 2.80
Change in HOMA from Baseline, Mean (human patients [2]; Aramchol 300 mg/d oral, PP): −7.74
Change in HOMA from Baseline, Median (human patients [2]; Aramchol 300 mg/d oral, PP): 0.20
Change in HOMA from Baseline, Min (human patients [2]; Aramchol 300 mg/d oral, PP): −139.60
insulin resistance (in words) (human patients [2]; Aramchol 300 mg/d, tested subjects, Tables 3 and 4): reduces insulin resistance
